Assay results taken from patent US10509041B2, “Glucose derivative, and cell imaging method and imaging agent using said derivative” (HIROSAKI UNIVERSITY, priority 2014, dated 2019).

Tests used:
[1] = Fluorescence spectrum (excitation and fluorescence maxima); assay type: physicochemical
Excerpt: The fluorescence spectra of CDG synthesized in (1) and QDG synthesized in (2) were compared with the fluorescence spectrum of 2-NBDLG (manufactured by Peptide Institute, Inc.).
The numeric values described above the graph denote the fluorescence maximum of CDG and QDG, respectively. It is evident that the fluorescence maximum was largely shifted to shorter wavelength as compared with the fluorescence maximum of 2-NBDLG present around 550 nm.

[2] = test system: neuronal cells of the substantia nigra pars reticulate of the midbrain; experiment: Fluorescent imaging of acutely isolated normal neuronal cells; assay type: cell-based, mouse; settings: 3 minutes, 8 minutes after start of washout
Procedure: The whole amount of the 0.5 mg CLG vial was recovered using 0.73 mL in total of 10% DMSO and dissolved (100 μM) by addition to 14.79 ml of a HEPES solution for image acquisition according to the method described in Non Patent Literature 2. […]
150 mM NaCl, 5 mM KCl, 1 mM MgCl2, 2 mM CaCl2, and 10 mM HEPES (the pH of the solution was adjusted to 7.4 with a 1 M tris(2-amino-2-hydroxymethyl-1,3-propanediol) solution). The concentration of glucose was set to 10 mM. 0.1 mM carbenoxolone (Sigma-Aldrich, #C4790) was added thereto for the purpose of inhibiting the entrance and exit of fluorescently labeled glucose by way of gap junction/hemichannel. This HEPES solution for image acquisition was used for preparing the CLG solution and the mixed solution with the additional fluorescent sugar derivative.
Neuronal cells […] to the method described in the previous reports of the inventors (WO2010/16587 (Patent Literature 2)) and (WO2012/133688 (Patent Literature 4)) and attached to each glass cover slip coated with poly-L-lysine. Then, the glass cover slip was transferred into the HEPES solution for image acquisition in a perfusion chamber loaded on a stage of a fluorescence microscope, followed by observation.
A silicon plate of 1 mm thickness bored to have a streamline-shaped hole (10 mm wide x 35 mm long) was placed via cover glass onto an aluminum heating control platform (Warner Instruments) having a round hole (diameter: 18 mm) for an objective lens at the bottom, and allowed to be in close contact with the cover glass.
The HEPES solution for image acquisition was warmed in advance in an aluminum syringe heater and supplied to the perfusion chamber through hydrostatic pressure. The perfusion rate was adjusted to 1.3±0.2 mL/min using a flow rate adjuster. Immediately before being introduced to the perfusion chamber, the solution was rewarmed via an inline heater so that the actually measured temperature of the perfusate in an observation region in the chamber was adjusted to 32.5±1° C. The CLG/2-TRLG mixed solution was able to be supplied in the same way as above and was switched with the HEPES solution for image acquisition using an electromagnetic valve capable of controlling the opening and closing of the channel. The solution was removed using a vacuum pump capable of controlling suction pressure.
The fluorescence microscope used was NIKON ECLIPS-Ti, and images were acquired with a CCD camera Retiga 2000R.
CLG and 2-TRLG were each detected using the following filter cassette.
Excitation 360/40 nm, Dichroic mirror 400 nm, Emission 460/50 nm.
Excitation 567/15 nm, Dichroic mirror 593 nm, Emission 593 nm Long pass.
The objective lens used in this method was ×20 dry lens (Nikon Plan S Fluor). The images were acquired at 1600×1200 pixels. […]

[3] = test system: MIN6 cell masses (spheroids); experiment: Fluorescent imaging of tumor cell masses (spheroids) of MIN6 cells with mixed fluorescent glucose derivative solutions; assay type: cell-based, mouse; settings: 100 μM CDG+100 μM 2-NBDLG+20 μM 2-TRLG mixed solution, 3 minutes, 6 minutes after start of washout, culture day 17
Procedure: A fluorescent mixed solution containing 100 μM CDG, 100 μM 2-NBDLG, and 20 μM 2-TRLG (CDG/2-NBDLG/2-TRLG) was administered at 37° C. for 3 minutes to MIN6 cell masses (spheroids) at culture day 17, and fluorescent imaging was conducted.
10 μL of a culture solution containing MIN6 cells suspended at a density of 6×10^4 cells/mL was added dropwise onto each glass cover slip, and then, the glass cover slip was left standing for 40 minutes in an incubator for fixation to the glass surface. The cells were cultured by the addition of 3 mL of a culture solution (600 cells/slip). Spheroids were formed by continuing the culture for 15 to 17 days. Half the amount of the culture solution was replaced with a fresh one once every three days.
The MIN6 cells used were cells kindly provided by professor Junichi Miyazaki (Osaka University) and subcultured 6 to 10 times. Half the amount of the culture solution was replaced with a fresh one once every two days.
13.4 g of high glucose-containing Dulbecco's modified Eagle's Medium (DMEM-HG) (Sigma-Aldrich, #D5648), 3.4 g of NaHCO3, and 5 μL of 2-mercaptoethanol were dissolved in 1 L of ultrapure water, and the pH of the solution was adjusted to 7.30 to 7.35 in a CO2 incubator of 37° C. The culture solution was supplemented with fetal bovine serum (Hyclone, Cat# SH30070.03) at a final concentration of 10% and penicillin-streptomycin at a final concentration of 0.5%.
The whole amount of the 0.5 mg CDG vial was recovered using 0.73 mL in total of 10% DMSO and dissolved by addition to 7.0 ml of a KRB solution for image acquisition according to the method described in Non Patent Literature 2.
The whole amount of one 0.5 mg 2-NBDLG vial was dissolved in 7.3 mL of a KRB solution for image acquisition.
The CDG solution and the 2-NBDLG solution were mixed at a ratio of 1:1. The whole amount of the 0.2 mg 2-TRLG vial was recovered using 130 μL in total of DMSO and mixed with 13 ml of the CDG+2-NBDLG mixed solution according to the method described in Non Patent Literature 2 (final concentration: 100 μM CDG+100 μM 2-NBDLG+20 μM 2-TRLG mixed solution). […]
The glass cover slip with the cultured MIN6 cells was transferred into the KRB solution for image acquisition in a perfusion chamber loaded on a stage of a fluorescence microscope, followed by measurement. […]
The KRB solution for image acquisition was warmed in advance in an aluminum syringe heater and supplied to the perfusion chamber through hydrostatic pressure. […] Immediately before being introduced to the perfusion chamber, the solution was rewarmed via an inline heater so that the actually measured temperature of the perfusate in an observation region in the chamber was adjusted to 36±1° C. […]

[4] = test system: mouse insulinoma cells (MIN6); experiment: Increase in fluorescence intensity (uptake) after administration of fluorescent glucose derivative to MIN6 cells, influence of cytochalasin B (CB) or phloretin (PHT), fluorescence microplate reader; assay type: cell-based; settings: QDG final concentration 100 NM as printed, Ex 354 nm, Em 435 nm

| Compound | maximum excitation wavelength (Ex max) [1] [nm] | maximum fluorescence wavelength (Em max) [1] | also measured |
| --- | --- | --- | --- |
| O=c1cc(C(F)(F)F)c2ccc(NC3C(O)OC(CO)[C@@H](O)C3O)cc2o1 (stereo partly drawn) [Compound 4-TFMCDG, 2-deoxy-2-(2-oxo-2H-4-trifluoromethyl-chromen-7-yl)amino-D-glucose] | 380.0 | 500.0 nm | – |
| 2-Texas Red-2-amino-2-deoxy-L-glucose [Compound 2-TRLG, reference compound] | – | – | uptake into normal neuronal cells ([2]; 100 μM CDG+20 μM 2-TRLG mixed solution, 14-day-old mouse): not taken into the normal neuronal cells; uptake into normal neuronal cells ([2]; 100 μM CLG+20 μM 2-TRLG mixed solution, 21-day-old mouse): not taken into the normal neuronal cells; uptake in the central portion of the spheroid [3]: strong uptake |
| Cc1cc2ccc(NC3C(O)OC(CO)[C@@H](O)[C@@H]3O)cc2oc1=O (stereo partly drawn) [Compound 3-MCDG, 2-deoxy-2-(2-oxo-3-methyl-2H-chromen-7-yl)amino-D-glucose] | 361.0 | 460.0 nm | – |
| Cc1cc(=O)oc2cc(NC3C(O)OC(CO)[C@@H](O)[C@@H]3O)ccc12 (stereo partly drawn) [Compound 4-MCDG, 2-deoxy-2-(2-oxo-4-methyl-2H-chromen-7-yl)amino-D-glucose] | 362.0 | 446.0 nm | – |
| O=[N+]([O-])c1ccc(NC2C(O)OC(CO)[C@H](O)C2O)c2nonc12 (stereo partly drawn) [Compound 2-NBDLG, 2-[N-(7-nitrobenz-2-oxa-1,3-diazol-4-yl)amino]-2-deoxy-L-glucose, reference compound] | – | around 550 nm | uptake into cells of MIN6 spheroids, intracellular localization [3]: strongly taken into the cytoplasm |
| O=c1oc2cc(NC3C(O)OC(CO)[C@@H](O)[C@@H]3O)ccc2cc1C(F)(F)F (stereo partly drawn) [Compound 3-TFMCDG, 2-deoxy-2-(2-oxo-3-trifluoromethyl-2H-chromen-7-yl)amino-D-glucose] | 381.0 | 455.0 nm | – |
| O=c1ccc2ccc(NC3C(O)OC(CO)[C@H](O)[C@H]3O)cc2[nH]1 (stereo partly drawn) [QLG, 2-deoxy-2-(2-oxo-1,2-dihydroquinolin-7-yl)amino-L-glucose] | 353.5 | 423.0 nm | – |
| O=c1ccc2ccc(NC3C(O)OC(CO)[C@@H](O)[C@@H]3O)cc2[nH]1 (stereo partly drawn) [QDG, 2-deoxy-2-(2-oxo-1,2-dihydroquinolin-7-yl)amino-D-glucose] | 353.5 | 423.0 nm | effect of CB on increase in fluorescence intensity caused by administration ([4]; CB as in Example 11): significantly inhibited; effect of PHT on increase in fluorescence intensity caused by administration ([4]; PHT as in Example 12): more strongly inhibited |
